The source of these data is patent US9856216B2, “Compounds as TNIK, IKKε and TBK1 inhibitors and pharmaceutical composition comprising same” (GREEN CROSS CORPORATION, priority 2015, dated 2018).

The target in this assay is T1, TNIK (Homo sapiens, UniProt Q9UKE5).
T1 construct: purchased Promega V4158
As to the kind of experiment: ADP-Glo Kinase Assay, inhibition activity on TNIK. Conditions: for IC50: read-out: TNIK. Type of assay: biochemical. The protocol:
The inhibition activities on TNIK, IKKε and TBK1 were measured by a luminometer, TNIK/IKKε/TBK1 Kinase Enzyme System (Promega, Ca# V4158; Invitrogen, PR8031B, Promega, Ca# V3991) and ADP-Glo Kinase Assay using ADP-Glo™ Kinase Analysis Kit (Promega, Ca# V9101) and a kinase reaction buffer [40 mM Tris(pH 7.5), 20 mM MgCl2, 0.1 mg/mL BSA] in accordance with the manufacturer's protocol.

T1 sequence (Q9UKE5 1-367 limits assumed): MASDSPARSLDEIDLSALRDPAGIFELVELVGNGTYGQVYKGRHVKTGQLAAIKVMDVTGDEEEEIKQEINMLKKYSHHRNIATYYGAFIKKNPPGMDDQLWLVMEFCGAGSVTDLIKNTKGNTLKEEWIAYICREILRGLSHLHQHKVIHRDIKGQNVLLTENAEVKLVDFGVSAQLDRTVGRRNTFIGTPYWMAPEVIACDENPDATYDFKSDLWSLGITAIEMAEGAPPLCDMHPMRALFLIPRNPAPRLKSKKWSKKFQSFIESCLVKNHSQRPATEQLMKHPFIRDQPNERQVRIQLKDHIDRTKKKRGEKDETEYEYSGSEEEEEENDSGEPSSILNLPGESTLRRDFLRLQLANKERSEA

As for `CN(C)CCNc1ccc(-c2ccccc2)c2c1C(=O)NC2` [Example 255, 7-((2-(Dimethylamino)ethyl)amino)-4-phenylisoindolin-1-one], the IC50 is more than 20000 nM.

Take `O=C1NCc2c(-c3ccccc3)ccc(NCCO)c21` [Example 256, 7-((2-Hydroxyethyl)amino)-4-phenylisoindolin-1-one]: the IC50 amounted to 4900 nM. As to `O=C1NCc2c(-c3ccccc3)ccc(NCCN3C(=O)c4ccccc4C3=O)c21` [Example 257, 2-(2-((3-Oxo-7-phenylisoindolin-4-yl)amino)ethyl)isoindolin-1,3-dione], the “TNIK (μM)” value was “Insoluble”.

Turning to `CN1CCN(CCNc2ccc(-c3ccccc3)c3c2C(=O)NC3)CC1` [Example 258, 7-((2-(4-Methylpiperazin-1-yl)ethyl)amino)-4-phenylisoindolin-1-one], the IC50 was more than 20000 nM. Still for that read-out and setting: with `O=C1NCc2c(-c3ccccc3)ccc(NCCN3CCCCC3)c21` [Example 259, 4-Phenyl-7-((2-(piperidin-1-yl)ethyl)amino)isoindolin-1-one] the figure was more than 20000 nM; with `O=C1NCc2c(-c3ccccc3)ccc(NCCN3CCOCC3)c21` [Example 260, 7-((2-Morpholinoethyl)amino)-4-phenylisoindolin-1-one], more than 20000 nM; with `CNCCNc1ccc(-c2ccccc2)c2c1C(=O)NC2` [Example 261, 7-((2-(Methylamino)ethyl)amino)-4-phenylisoindolin-1-one], more than 20000 nM. Still for that read-out and setting: in the case of `O=C1NCc2c(-c3ccccc3)ccc(NCCN3CCCC3)c21` [Example 262, 4-Phenyl-7-((2-(pyrrolidin-1-yl)ethyl)amino)isoindolin-1-one] it was more than 20000 nM. The same measure, in the same setting: in the case of `O=C1NCc2c(-c3ccccc3)ccc(NCc3ccccc3)c21` [Example 263, 7-(Benzylamino)-4-phenylisoindolin-1-one] it was more than 20000 nM.

Take `O=C1NCc2c(-c3ccccc3)ccc(NCCCN3C(=O)c4ccccc4C3=O)c21` [Example 264, 2-(3-((3-Oxo-7-phenylisoindolin-4-yl)amino)propyl)isoindolin-1,3-dione]: the “TNIK (μM)” value is reported as “Insoluble”. Regarding `Nc1ccc(-c2ccccc2)c2c1C(=O)NC2=O` [Example 271, 4-Amino-7-phenylisoindolin-1,3-dione], the IC50 came out at 2500 nM. Same read-out and setting: with `COc1ccccc1-c1ccc(N)c2c1C(=O)NC2=O` [Example 272, 4-Amino-7-(2-methoxyphenyl)isoindolin-1,3-dione] the figure was 10900 nM. Take `COc1cccc(-c2ccc(N)c3c2C(=O)NC3=O)c1OC` [Example 273, 4-Amino-7-(2,3-dimethoxyphenyl)isoindolin-1,3-dione]: the “TNIK (μM)” value was “Insoluble”.

Take `Nc1ccc(-c2ccco2)c2c1C(=O)NC2=O` [Example 274, 4-Amino-7-(furan-2-yl)isoindolin-1,3-dione]: the IC50 was 3600 nM. The same measure, in the same setting: in the case of `Nc1ccc(-c2cccs2)c2c1C(=O)NC2=O` [Example 275, 4-Amino-7-(thiophen-2-yl)isoindolin-1,3-dione] it was 1100 nM; in that of `O=C(Nc1ccc(-c2ccccc2)c2c1C(=O)NC2=O)c1ccccc1` [Example 276, N-(1,3-dioxo-7-phenylisoindolin-4-yl)benzamide], 1100 nM. On the same count and under the same terms, with `COc1ccccc1-c1ccc(NC(=O)c2ccccc2)c2c1C(=O)NC2=O` [Example 277, N-(7-(2-methoxyphenyl)-1,3-dioxoisoindolin-4-yl)benzamide] the figure was 650 nM; with `COc1cccc(-c2ccc(NC(=O)c3ccccc3)c3c2C(=O)NC3=O)c1OC` [Example 278, N-(7-(2,3-dimethoxyphenyl)-1,3-dioxoisoindolin-4-yl) benzamide], 410 nM. With `O=C(Nc1ncc(-c2ccccc2)c2c1C(=O)NC2)c1ccc(F)cc1` [Example 279, 4-Fluoro-N-(3-oxo-7-phenyl-2,3-dihydro-1H-pyrrolo[3,4-c]pyridin-4-yl)benzamide], the IC50 was more than 20000 nM. Still for that read-out and setting: with `COc1cccc(-c2ccc(NC(=O)c3ccc(NCCCN4CCCC4)cc3)c3c2CNC3=O)c1OC` [Example 280, N-(7-(2,3-dimethoxyphenyl)-3-oxoisoindolin-4-yl)-4-((3-(pyrrolidin-1-yl)propyl)amino)benzamide] the figure was 73 nM; with `CN(C)CCNc1ccc(C(=O)Nc2ccc(Br)c3c2C(=O)NC3)cc1` [Example 281, N-(7-bromo-3-oxoisoindolin-4-yl)-4-((2-(dimethylamino)ethyl)amino)benzamide], 2420 nM. With `O=C(Nc1ccc(Br)c2c1C(=O)NC2)c1ccc(NCCCN2CCCCC2)cc1` [Example 282, N-(7-bromo-3-oxoisoindolin-4-yl)-4-((3-(piperidin-1-yl)propyl)amino)benzamide], the IC50 was determined as 1400 nM. For `O=C(Nc1ccc(Br)c2c1C(=O)NC2)c1ccc(NCCN2CCCC2)cc1` [Example 283, N-(7-bromo-3-oxoisoindolin-4-yl)-4-((2-(pyrrolidin-1-yl)ethyl)amino)benzamide], the IC50 came out at 1760 nM.

Regarding `O=C(Nc1ccc(Br)c2c1C(=O)NC2)c1ccc(NCCN2CCCCC2)cc1` [Example 284, N-(7-bromo-3-oxoisoindolin-4-yl)-4-((2-(piperidin-1-yl)ethyl)amino)benzamide], the IC50 amounted to 1550 nM. As for `O=C(Nc1ccc(Br)c2c1C(=O)NC2)c1ccc(NCCN2CCCCCC2)cc1` [Example 285, 4-((2-(azepan-1-yl)ethyl)amino)-N-(7-bromo-3-oxoisoindolin-4-yl)benzamide], the IC50 was 1130 nM. `CN(C)CCCNc1ccc(C(=O)Nc2ccc(Br)c3c2C(=O)NC3)cc1` [Example 286, N-(7-bromo-3-oxoisoindolin-4-yl)-4-((3-(dimethylamino)propyl)amino)benzamide]: the IC50 amounted to 1480 nM. `O=C(Nc1ccc(-c2ccco2)c2c1C(=O)NC2)c1ccc(NCCN2CCCC2)cc1` [Example 287, N-(7-(furan-2-yl)-3-oxoisoindolin-4-yl)-4-((2-(pyrrolidin-1-yl)ethyl)amino)benzamide]: the IC50 amounted to 660 nM.

Turning to `COCCNc1ccc(C(=O)Nc2ccc(-c3ccco3)c3c2C(=O)NC3)cc1` [Example 288, N-(7-(furan-2-yl)-3-oxoisoindolin-4-yl)-4-((2-methoxyethyl)amino)benzamide], the IC50 is 450 nM. `O=C(Nc1ccc(-c2ccco2)c2c1C(=O)NC2)c1ccc(NCCN2CCCCC2)cc1` [Example 289, N-(7-(furan-2-yl)-3-oxoisoindolin-4-yl)-4-((2-(piperidin-1-yl)ethyl)amino)benzamide]: the IC50 turned out to be 360 nM. As to `O=C(Nc1ccc(-c2ccco2)c2c1C(=O)NC2)c1ccc(NCCN2CCOCC2)cc1` [Example 290, N-(7-(furan-2-yl)-3-oxoisoindolin-4-yl)-4-((2-morpholinoethyl)amino)benzamide], the IC50 is 180 nM. The same measure, in the same setting: in the case of `CN(C)CCNc1ccc(C(=O)Nc2ccc(-c3ccco3)c3c2C(=O)NC3)cc1` [Example 291, 4-((2-(Dimethylamino)ethyl)amino)-N-(7-(furan-2-yl)-3-oxoisoindolin-4-yl)benzamide] it was 540 nM; in that of `O=C(Nc1ccc(-c2ccco2)c2c1C(=O)NC2)c1ccc(NCCO)cc1` [Example 292, N-(7-(furan-2-yl)-3-oxoisoindolin-4-yl)-4-((2-hydroxyethyl)amino)benzamide], 470 nM.
